Measured values: patent US20090076111A1, “Methods for improving glycemic control in humans” (priority 2004, published 2009)

Tests used:
[1] = Preclinical oral bioavailability and urinary excretion of 4-OH-Ile in PROMILIN; assay type: in vivo, rat; settings: rats
Experimental: In addition to the human clinical portion of the study, preclinical trials were conducted in rats to assess if the 4-OH-Ile in PROMILIN™ is orally bioavailable to rats and if it is excreted in their urine.

pancreatic beta cell = settings: major isomer (2S,3R,4S), micromolar concentrations, glucose dependent; cited from earlier work

- oral bioavailability ([1]; 4-OH-Ile in PROMILIN, oral): bioavailable
- time to absorption from the gut into the circulation ([1]; both diastereomers, after oral gavage of PROMILIN): ≤ 15 min
- urinary excretion ([1]; both isomers): excreted in the urine
- appearance of 4-OH-Ile in the circulation ([1]; coadministration of glucose and PROMILIN): slowed the appearance
Compound: CC(O)C(C)C(N)C(=O)O (racemic) [4-OH-Ile, 4-hydroxyisoleucine]
- glucose-induced insulin secretion (pancreatic beta cell): stimulate glucose-induced insulin secretion
